Assay results as given in BindingDB's records for PubMed 26907156 (n/a, 2016).

Target: CDK2/Cyclin E
Assay: Inhibition of CDK2/Cyclin E (unknown origin) using histone as substrate incubated for 30 mins in presence of gamma[33P]ATP by digital imaging analysis

IC50 [nM] | SMILES
20 | CCC(CO)Nc1nc(NCc2cc(C)ccc2O)c2ncn(C(C)C)c2n1 (stereo not drawn)
20 | COc1cccc(CNc2nc(NC3CCCCC3N)nc3c2ncn3C(C)C)c1O (stereo not drawn)
20 | CC(C)n1cnc2c(NCc3cc(Cl)ccc3O)nc(NCCC(C)(C)O)nc21
